Data taken from PubChem BioAssay (NCI).
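Method: 48-hour compound exposure of cells in 96-well plates, five concentrations, linear interpolation of endpoints. GI50 = concentration required for 50% inhibition of growth. The concentration for full growth arrest is given as TGI.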

Key:
Experiment in all cases: NCI-60 cell line screen, 48 h
NCI-H226 lung = system: NCI-H226 lung
M14 melanoma = system: M14 melanoma
MDA-MB-231 breast = system: MDA-MB-231 breast
RXF 393 renal = system: RXF 393 renal
NCI/ADR-RES ovarian = system: NCI/ADR-RES ovarian
UO-31 renal = system: UO-31 renal
HCC-2998 colon = system: HCC-2998 colon
OVCAR-3 ovarian = system: OVCAR-3 ovarian
SF-539 CNS = system: SF-539 CNS
SK-MEL-2 melanoma = system: SK-MEL-2 melanoma

| Compound | GI50 (NCI-H226 lung) [nM] | TGI (NCI-H226 lung) [nM] | GI50 (M14 melanoma) [nM] | TGI (M14 melanoma) [nM] | GI50 (MDA-MB-231 breast) [nM] | GI50 (RXF 393 renal) [nM] | TGI (RXF 393 renal) [nM] | GI50 (NCI/ADR-RES ovarian) [nM] | TGI (NCI/ADR-RES ovarian) [nM] | GI50 (UO-31 renal) [nM] | GI50 (HCC-2998 colon) [nM] | TGI (HCC-2998 colon) [nM] | GI50 (OVCAR-3 ovarian) [nM] | TGI (OVCAR-3 ovarian) [nM] | GI50 (SF-539 CNS) [nM] | TGI (SF-539 CNS) [nM] | GI50 (SK-MEL-2 melanoma) [nM] | TGI (SK-MEL-2 melanoma) [nM] | TGI (MDA-MB-231 breast) [nM] | TGI (UO-31 renal) [nM] |
| --- | --- | --- | --- | --- | --- | --- | --- | --- | --- | --- | --- | --- | --- | --- | --- | --- | --- | --- | --- | --- |
| Cc1cc(Cl)ccc1Nc1nc(C(F)(F)F)ccc1C(=O)N/N=C/c1c(Cl)cccc1Cl | 243 | 1740 | 536 | > 100000 | 249 | 2040 | > 100000 | 445 | > 100000 | 301 | 459 | > 100000 | 102 | 380 | 638 | 4070 | 272 | 1330 |  |  |
| COc1ccc2c(c1)N(CCO)C1=C(C(=O)OC1)C2c1cccc(Br)c1 (stereo not given) | 175 | 2560 | 61.2 | 597 | 372 | 48.2 | 71000 | 39.7 | 223 | 77.6 | 184 | 15700 | 33.8 | 135 | 49.8 | 859 | 59.5 | 3240 | 19400 | > 85300 |
| Cc1ccc(S(=O)(=O)N2C/C(=C\c3cc(F)cc(F)c3)C(=O)/C(=C/c3cc(F)cc(F)c3)C2)cc1 | 2420 |  | 429 | 1720 | 285 | 535 | 1820 | 447 | 12700 | 481 | 632 | 1970 | 408 | 1270 | 710 | 2160 | 972 | 2840 | 867 | 1080 |
| COc1cc2c(cc1C)NC(=O)/C2=C/c1c(C)nc2sc(C)cn12 | 82800 | > 100000 | 44200 | > 100000 | 40900 | > 100000 | > 100000 | 45500 | > 100000 | 86600 | 31700 | > 100000 | 74700 | > 100000 | > 100000 | > 100000 | > 100000 | > 100000 | > 100000 | > 100000 |
| O=C(Nc1ncc(Cc2ccc(Cl)cc2)s1)c1ccc2c(c1)OCCO2 | 358 |  | 40.9 | 75300 | 176 | 32.6 | 567 | 39.3 | 5580 | 83.4 | 223 | 20300 | 33.5 | 398 | 46.9 | 571 | 343 | > 69400 | 3150 | > 100000 |
| Cn1c2ccccc2c(=S)c2cc(NC(=O)CCCCC(=O)Nc3ccc4c(c3)c(=S)c3ccccc3n4C)ccc21 |  | > 100000 |  | > 100000 |  |  | > 100000 |  | > 100000 |  |  | > 100000 |  | > 100000 |  | > 100000 |  | > 100000 | > 100000 | > 100000 |
| COc1ccc2c(c1)CC[C@@H]1[C@@H]2CC[C@]2(C)c3c(cc(C(=O)c4ccccc4)c4sccc34)C[C@@H]12 | > 100000 | > 100000 | 75400 | > 100000 | > 100000 | > 100000 | > 100000 | > 100000 | > 100000 | > 100000 | > 100000 | > 100000 | > 100000 | > 100000 | > 100000 | > 100000 | > 100000 | > 100000 | > 100000 | > 100000 |
| COc1ccc(/C=C/C(=O)c2ccc(NC(=O)CSc3nnc(-c4cc(OC)c(OC)c(OC)c4)o3)cc2)cc1 | 2670 | 5690 | 1600 | 3300 | 1820 | 1740 | 3540 | 2420 | 7030 | 1460 | 1880 | 3650 | 1780 | 3380 | 1640 | 3030 | 1790 | 4820 | 3500 | 2970 |
| CC(=O)O[C@@H]1CC(=O)O[C@@H]2C[C@@H](CC/C(Cl)=C/C/C=C\1C)O[C@@H]2CO | > 25000 | > 25000 | > 25000 | > 25000 | > 25000 | > 25000 | > 25000 | > 25000 | > 25000 | > 25000 | > 25000 | > 25000 |  | > 10600 | > 25000 | > 25000 | > 25000 | > 25000 | > 25000 | > 25000 |
